The text below walks through data of patent US4868321A, “Isothiocyanate intermediates” (FMC Corporation, priority 1988, dated 1989).

Format in all cases: in vivo
Test [1] concerns Morningglory. The test is described as follows: Preemergence Herbicidal Activity, Morningglory. The note with it: Ipomoea, pre-emergence; for pest or weed control at 500 g/ha: 0.5 kg/ha. From the text:
(§1) The herbicidal data in the following Tables 3 and 4 was obtained in the manner described in PCT published application no. WO 85/01939, previously mentioned, usually employing solutions of the herbicidal compound in 50/50 acetone/water mixtures. In those tables, the test compounds are identified by numbers which correspond to those in Table 1, "kg/ha" is kilograms per hectare, and "% C" is percent control.

Test [2] deals with Barnyardgrass. The test is described as follows: Postemergence Herbicidal Activity, Barnyardgrass. Particulars: Echinochloa crus-galli, post-emergence. From the text: (§2) The herbicidal data in the following Tables 3 and 4 was obtained in the manner described in PCT published application no. […] In those tables, the test compounds are identified by numbers which correspond to those in Table 1, "kg/ha" is kilograms per hectare, and "% C" is percent control.

For test [3], the system named is Field Corn. The test is described as follows: Postemergence Herbicidal Activity, Field Corn. The note with it: Zea mays, post-emergence.
Description: as §2

For test [4], the system named is Soybean. The test is described as follows: Preemergence Herbicidal Activity, Soybean. The note with it: for plant injury at 500 g/ha: 0.5 kg/ha.
Description: as §2

The subject of test [5] is Green Foxtail. Nature of the test: Preemergence Herbicidal Activity, Green Foxtail. Particulars: Setaria viridis, pre-emergence; for pest or weed control at 500 g/ha: 0.5 kg/ha.
Description: as §2

Test [6] deals with Velvetleaf. Nature of the test: Postemergence Herbicidal Activity, Velvetleaf. The note with it: Abutilon theophrasti, post-emergence.
Description: as §1

In test [7] the test system is Cotton. Nature of the test: Preemergence Herbicidal Activity, Cotton. The note with it: Gossypium hirsutum, pre-emergence; for plant injury at 500 g/ha: 0.5 kg/ha.
Description: as §1

Test [8] concerns Velvetleaf. Nature of the test: Preemergence Herbicidal Activity, Velvetleaf. The note with it: Abutilon theophrasti, pre-emergence; for pest or weed control at 500 g/ha: 0.5 kg/ha.
Description: as §1

In test [9] the test system is Field Corn. The test is described as follows: Preemergence Herbicidal Activity, Field Corn. The note with it: Zea mays, pre-emergence; for plant injury at 500 g/ha: 0.5 kg/ha.
Description: as §2

Test [10] relates to Green Foxtail. The test is described as follows: Postemergence Herbicidal Activity, Green Foxtail. Particulars: Setaria viridis, post-emergence.
Description: as §2

In test [11] the test system is Cotton. Nature of the test: Postemergence Herbicidal Activity, Cotton. Particulars: Gossypium hirsutum, post-emergence.
Description: as §1

The test system of test [12] is Barnyardgrass. Nature of the test: Preemergence Herbicidal Activity, Barnyardgrass. The note with it: Echinochloa crus-galli, pre-emergence; for pest or weed control at 500 g/ha: 0.5 kg/ha.
Description: as §2

Test [13] deals with Johnsongrass. Nature of the test: Postemergence Herbicidal Activity, Johnsongrass. The note with it: Sorghum halepense, post-emergence.
Description: as §2

Test [14] relates to Johnsongrass. The test is described as follows: Preemergence Herbicidal Activity, Johnsongrass. Particulars: Sorghum halepense, pre-emergence; for pest or weed control at 500 g/ha: 0.5 kg/ha.
Description: as §2

Test [15] concerns Wheat. Nature of the test: Preemergence Herbicidal Activity, Wheat. The note with it: Triticum aestivum, pre-emergence; for plant injury at 500 g/ha: 0.5 kg/ha.
Description: as §2

Test [16] concerns Morningglory. Nature of the test: Postemergence Herbicidal Activity, Morningglory.
Description: as §1

In test [17] the test system is Soybean. The test is described as follows: Postemergence Herbicidal Activity, Soybean. Particulars: Glycine max, post-emergence.
Description: as §2

The test system of test [18] is Wheat. Nature of the test: Postemergence Herbicidal Activity, Wheat. Particulars: Triticum aestivum, post-emergence.
Description: as §2

Test [19] concerns Rice. Nature of the test: Preemergence Herbicidal Activity, Rice. The note with it: Oryza sativa, pre-emergence; for plant injury at 500 g/ha: 0.5 kg/ha.
Description: as §2

Test [20] relates to Rice. The test is described as follows: Postemergence Herbicidal Activity, Rice. The note with it: Oryza sativa, post-emergence.
Description: as §2

For test [21], the system named is Field Bindweed. The test is described as follows: Preemergence Herbicidal Activity, Field Bindweed. The note with it: pre-emergence.
Description: as §1

Structures are written as SMILES. Counter-ions that a name gives are not always drawn.

For the compound `CS(=O)(=O)N(c1cc(-n2nnn(CCCF)c2=O)c(F)cc1Cl)S(C)(=O)=O` [Compound 9], the pest or weed control (commonly the degree to which the test organism was suppressed or injured, in per cent) at 1000 g/ha is 100% in [1] (1.0 kg/ha); 100% in test [2] (1.0 kg/ha); 100% in test [5] (1.0 kg/ha); 100% in test [6] (1.0 kg/ha); 100% in test [8] (1.0 kg/ha); 60% in test [10] (1.0 kg/ha). Also, the pest or weed control at 1000 g/ha in test [12] (1.0 kg/ha) is 100%; in test [13] (1.0 kg/ha), 70%; in [14] (1.0 kg/ha) it was 80%; in [16] (Ipomoea, post-emergence, 1.0 kg/ha), 100%. The plant injury (as a rule, the degree to which the test organism was suppressed or injured, in per cent) at 1000 g/ha in test [3] (1.0 kg/ha) is 30%; in [4] (Glycine max, pre-emergence, 1.0 kg/ha), 50%; in test [7] (1.0 kg/ha), 100%; in test [9] (1.0 kg/ha), 100%; in [11] (1.0 kg/ha), 100%; in [15] (1.0 kg/ha), 90%. In addition, the plant injury at 1000 g/ha in test [17] (1.0 kg/ha) turned out to be 30%; in test [18] (1.0 kg/ha) it was 80%.

Regarding `CCS(=O)(=O)N(c1cc(-n2nnn(CCCF)c2=O)c(F)cc1Cl)S(=O)(=O)CC` [Compound 21, 1-[4-chloro-2-fluoro-5-[bis(N--ethylsulfonyl)amino]phenyl]-1,4-dihydro-4-(3-fluoropropyl)-5H--tetrazol-5-one], the pest or weed control at 500 g/ha came to 95% in [1]; 100% in [5]; 100% in test [8]; 100% in test [12]; 100% in [14]. In addition, the plant injury at 500 g/ha in [4] (Glycine max, pre-emergence) came out at 20%; in test [7] it was 95%; in test [9] it was 90%; in test [15], 95%; in test [19] it was 80%.

For `CCCS(=O)(=O)N(c1cc(-n2nnn(CCCF)c2=O)c(F)cc1Cl)S(=O)(=O)CCC` [Compound 26, 1-[4-chloro-2-fluoro-5-[bis(N--propylsulfonyl)amino]phenyl]-1,4-dihydro-4-(3-fluoropropyl)-5H--tetrazol-5-one], the pest or weed control at 500 g/ha in [1] stood at 60%; in test [2] (0.5 kg/ha) it was 80%; in test [5], 60%; in test [6] (0.5 kg/ha), 100%; in test [8] it was 100%; in test [10] (0.5 kg/ha), 80%. For the same compound, the pest or weed control at 500 g/ha in [12] was found to be 100%; in test [13] (0.5 kg/ha) it was 70%; in [14], 95%; in [16] (Ipomoea, post-emergence, 0.5 kg/ha) it was 100%. Besides, the plant injury at 500 g/ha in test [3] (0.5 kg/ha) was found to be 100%; in test [4] (Glycine max, pre-emergence), 0%; in test [7] it was 50%; in test [9], 90%; in test [11] (0.5 kg/ha) it was 100%; in test [15], 60%. Besides, the plant injury at 500 g/ha in [17] (0.5 kg/ha) was 50%; in test [18] (0.5 kg/ha), 90%; in test [19] it was 20%; in [20] (0.5 kg/ha), 40%.

Turning to `CCS(=O)(=O)Nc1cc(-n2nnn(CCCF)c2=O)c(F)cc1Cl` [Compound 31, 1-[4-Chloro-2-fluoro-5-(N--ethylsulfonylamino)phenyl]-1,4-dihydro-4-(3-fluoropropyl)-5H--tetrazol-5-one potassium salt], the pest or weed control at 250 g/ha in test [1] (0.25 kg/ha) was found to be 100%; in [2] (0.25 kg/ha), 80%; in test [21] (0.25 kg/ha), 100%; in test [5] (0.25 kg/ha), 50%; in test [8] (0.25 kg/ha), 100%; in [10] (0.25 kg/ha) it was 60%. Further, the pest or weed control at 250 g/ha in test [12] (0.25 kg/ha) is 95%; in test [13] (0.25 kg/ha), 60%; in [14] (0.25 kg/ha), 70%. Also, the plant injury at 250 g/ha in test [3] (0.25 kg/ha) is 30%; in [7] (0.25 kg/ha), 100%; in test [9] (0.25 kg/ha), 30%; in [15] (0.25 kg/ha) it was 20%; in test [17] (0.25 kg/ha), 80%; in test [18] (0.25 kg/ha), 40%. Further, the plant injury at 250 g/ha in test [19] (0.25 kg/ha) and in test [20] (0.25 kg/ha) was 40% each time. For the same compound, the “Preemergence Herbicidal Activity” value in [4] (0.25 kg/ha, potassium salt) is recorded as 10 % Control. The “Postemergence Herbicidal Activity” value in test [16] (0.25 kg/ha, potassium salt) amounted to 100 % Control.

`CCS(=O)(=O)N(c1cc(-n2nnn(C)c2=O)c(F)cc1Cl)S(=O)(=O)CC` [Compound 41, 1-[4-Chloro-2-fluoro-5-[bis(N--ethylsulfonyl)amino]phenyl]-4,5-dihydro-4-methyl-5H--tetrazol-5-one]: the pest or weed control at 2000 g/ha was 100% in test [1] (2.0 kg/ha); 100% in test [21] (2.0 kg/ha); 95% in test [5] (2.0 kg/ha); 100% in test [8] (2.0 kg/ha); 80% in test [12] (2.0 kg/ha); 20% in test [14] (2.0 kg/ha). Also, the plant injury at 2000 g/ha in test [4] (Glycine max, pre-emergence, 2.0 kg/ha) was 50%; in [7] (2.0 kg/ha) it was 95%; in test [9] (2.0 kg/ha), 40%; in test [15] (2.0 kg/ha) it was 10%; in [19] (2.0 kg/ha), 10%.
